# From patent US20090264292A1, “HERBICIDAL COMPOSITION” (ISHIHARA SANGYO KAISHA, LTD., priority 2005, published 2009)
# Key:
# Type in all cases: in vivo
# [1] = system: velvetleaf (Abutilon theophrasti MEDIC.); assay: Test Example 3: pot test, foliar application, velvetleaf; details: 2.3 to 2.5 leaf stage, 14th day after application, read-out: Velvetleaf Growth inhibition rate (%) Observed
# Experimental: (§1) Growth inhibition rate (%)=0% (equivalent to the non-treated area) to 100% (complete kill)
# (§2) Upland field soil was put into a 1/1,000,000 ha pot, and seeds of velvetleaf (Abutilon theophrasti MEDIC.) were sown. Then, when velvetleaf reached 2.3 to 2.5 leaf stage, a prescribed amount of the herbicidal composition was diluted with water corresponding to 300 L/ha, and foliar application was carried out by means of a small size spray.
# On the 14th day after the application, the state of growth of velvetleaf was visually observed and evaluated in the same manner as in the above Test Example 1.
# [2] = system: velvetleaf (Abutilon theophrasti MEDIC.); assay: Test Example 1: pot test, foliar application, velvetleaf; details: 2.8 leaf stage, 21st day after application, read-out: Velvetleaf Growth inhibition rate (%) Observed
# Experimental: (§3) Upland field soil was put into a 1/1,000,000 ha pot, and seeds of various plants were sown. Then, when the plants reached the prescribed leaf stages ((1) 3.6 leaf stage of crabgrass (Digitaria sanguinalis L.), and (2), 2.8 leaf stage of velvetleaf (Abutilon theophrasti MEDIC.)), a prescribed amount of the herbicidal composition was diluted with water corresponding to 300 L/ha, and foliar application was carried out by means of a small size spray. On the 21st day after the application, the state of growth of each plant was visually observed, and the growth inhibition rate (%) evaluated in accordance with the following evaluation standard (observed value) and the growth inhibition rate (%) calculated by the above-mentioned Colby method (expected value) are shown in Tables 1 and 2 .
# as §1
# [3] = system: velvetleaf (Abutilon theophrasti MEDIC.); assay: Test Example 2: pot test, foliar application, velvetleaf; details: 2.9 leaf stage, 21st day after application, read-out: Velvetleaf Growth inhibition rate (%) Observed
# Experimental: as §1
# as §2, with “2.9” for “2.3 to 2.5”
# On the 21st day after the application, the state of growth of velvetleaf was visually observed and evaluated in the same manner as in the above Test Example 1.
# [4] = system: crabgrass (Digitaria sanguinalis L.); assay: Test Example 1: pot test, foliar application, crabgrass; details: 3.6 leaf stage, 21st day after application, read-out: Crabgrass Growth inhibition rate (%) Observed
# Experimental: as §3, §1
SMILES,inhibition at 5 g/ha ([1]; 5 g/ha) [%],inhibition at 10 g/ha ([1]; 10 g/ha) [%],inhibition at 15 g/ha ([1]; 15 g/ha) [%],inhibition at 50 g/ha ([2]; 50 g/ha) [%],inhibition at 25 g/ha ([3]; 25 g/ha) [%],inhibition at 25 g/ha ([4]; 25 g/ha) [%],inhibition at 1000 g/ha ([1]; 1000 g/ha) [%],inhibition at 1500 g/ha ([1]; 1500 g/ha) [%],inhibition at 2000 g/ha ([1]; 2000 g/ha) [%],inhibition at 250 g/ha ([2]; 250 g/ha) [%],inhibition at 500 g/ha ([2]; 500 g/ha) [%],inhibition at 500 g/ha ([3]; 500 g/ha) [%],inhibition at 250 g/ha ([4]; 250 g/ha) [%],inhibition at 500 g/ha ([4]; 500 g/ha) [%]
"COc1cc(OC)nc(NC(=O)NS(=O)(=O)c2ncccc2C(=O)N(C)C)n1 [Compound A-1, 2-(4,6-dimethoxypyrimidin-2-ylcarbamoylsulfamoyl)-N,N-dimethylnicotinamide]",5,8,12,60,38,53,–,–,–,–,–,–,–,–
"CCNc1nc(Cl)nc(NC(C)(C)C)n1 [Compound B-1, N^2-tert-butyl-6-chloro-N^4-ethyl-1,3,5-triazine-2,4-diamine]",–,–,–,–,–,–,37,43,43,57,58,47,5,8
